A word on the TGI: it is the reduction of tumour growth relative to the control group.

The subject of series [1] is CT-26 WT cells. The series can be described thus: CT-26 WT subcutaneous tumor model, Compound 6 with anti-m-PD-1 antibody (Example 1). The settings on record: Day 27; Compound 6 35 mg/kg tail vein once per day; anti-m-PD-1 10 mg/kg IP once every five days, four times. Type of series: in vivo, BALB/c female mice. The procedure: CT-26 WT cells were maintained at 37° C. in 5% CO2 in RPMI 1640 medium (10-040-CV, Corning cellgro) supplemented with 10% FBS (10270-106, GIBCO) and used before the 10th subculture.
At Day 0, 45 BALB/c female mice, 4-5 weeks old, were subcutaneously injected with about 200.0 μL of the CT-26 WT cell medium containing about 5×10^5 cells, respectively.
At Day 5, 32 tumor-bearing mice were randomly assigned to four groups according to their body weights, 8 mice per group. The remaining mice were subject to euthanasia. […]
(§1) Mice were observed every day for their physical conditions and activities, and mice body weight and tumor volume were measured every Tuesday, Thursday and Sunday. The tumor volume (V) was calculated as (length×width^2)/2.
(§2) At Day 27, mice were subject to euthanasia, from which tumors were collected, weighed and photographed. Mice body weights, tumor sizes and tumor weights were analyzed using the t-test in SPSS, and group differences were deemed statistically significant when the p-value was 0.05 or less.
Tumor growth inhibition (TGI) was calculated by the following two formulae. […]
Further, Zheng-Jun Jin's Q value was calculated using the formula Q=EA+B/(EA+EB−EA×EB) to assess the combined effect of the anti-PD-1 antibody and Compound 6, wherein EA+B, EA, and EB referred to the TGIs of the combination therapy, anti-PD-1 administration and Compound 6 administration, respectively. […]

Series [2] can be described thus: Mice body weight and survival in CT-26 WT tumor model (Example 1). It counts as in vivo, BALB/c female mice. The settings on record: Day 27; Compound 6 35 mg/kg, anti-m-PD-1 10 mg/kg. Here is the method: as §1, §2
Series [3] has as its system CT-26 WT cells. The series is described as follows: CT-26 WT subcutaneous tumor model, CHK inhibitors at lower dose with anti-m-PD-1 antibody (Example 2). Type of series: in vivo, BALB/c female mice. The settings on record: for Average tumor size: compounds 15 mg/kg tail vein once per day, anti-m-PD-1 10 mg/kg IP once every five days. Here is the method:
The anti-tumor effect of Compound 6 at a lower dose in combination with an anti-PD-1 antibody was studied in this Example. Further, three compounds obtained by structurally modifying Compound 6, i.e., Compound 6-1, Compound 6-2 and Compound 6-3, were tested alone or in combination with an anti-PD-1 antibody for their anti-tumor effects.
At Day 0, 105 BALB/c female mice, 4-5 weeks old, were subcutaneously injected with about 200.0 μL of the CT-26 WT cell medium containing about 5×10^5 cells, respectively.
At Day 5, 80 tumor-bearing mice were randomly assigned to ten groups according to their body weights, 8 mice per group. The remaining mice were subject to euthanasia.
The ten groups of animals were administered with an anti-m-PD-1 antibody (BE0146, BioXcell) in PBS (21-040-CVR, BioXcell) at 1.0 mg/mL, Compound 6 in saline at 1.5 mg/mL, Compound 6-1 in saline at 1.5 mg/mL, Compound 6-2 in saline at 1.5 mg/mL, Compound 6-3 in saline at 1.5 mg/mL, the anti-m-PD-1 antibody+Compound 6, the anti-m-PD-1 antibody+Compound 6-1, the anti-m-PD-1 antibody+Compound 6-2, the anti-m-PD-1 antibody+Compound 6-3, and the control vehicle (saline), respectively, at doses shown in Table 3 below.
as §1
(§3) At Day 23, mice were subject to euthanasia, from which tumors were collected, weighed and photographed. Mice body weights, tumor sizes and tumor weights were analyzed using the t-test in SPSS, and group differences were deemed statistically significant when the p-value was 0.05 or less. Tumor weight based tumor growth inhibition (TGI) and Zheng-Jun Jin's Q value were calculated.

Series [4] in a line: Mice body weight in CT-26 WT tumor model (Example 2). The settings on record: for Average body weight: compounds 15 mg/kg tail vein once per day, anti-m-PD-1 10 mg/kg IP once every five days. It counts as in vivo, BALB/c female mice. Here is the method:
as §1, §3

Series [5] concerns MC38 cells. The series can be described thus: MC38 tumor model in transgenic mice, Compound 6, anti-PD-1 antibody and gemcitabine (Example 5). The settings on record: Day 23; Compound 6 15 mg/kg IP QD × 14; GEM 20 mg/kg IV QW × 2; anti-PD-1 10 mg/kg IP Q5D × 3. It counts as in vivo, C57BL/6-Pdcd1^em(hPDCD1) Cd274^em1(hPD-L1)/Smoc mice. Here is the method:
MC38 cells were maintained at 37° C. in 5% CO2 in RPMI 1640 medium (10-040-CV, Corning cellgro) supplemented with 10% FBS (10270-106, GIBCO) and used before the 10th subculture.
Female C57BL/6-Pdcd1^em(hPDCD1) Cd274^em1(hPD-L1)/Smoc mice (Shanghai Model Organisms), 20-25 g, were subcutaneously injected with about 5×10^5 MC38 cells, respectively.
When tumors grew to 50-70 mm^3, these mice were randomly assigned to 8 groups, 8 mice per group, this day was at Day 9. From Day 9, the animals were administered with gemcitabine (GEM) in saline at 20 mg/mL, an anti-PD-1 antibody (Toripalimab, Shanghai Junshi Biosciences Co., Ltd. China) in saline at 40 mg/mL, Compound 6 in saline at 8 mg/mL, Compound 6+gemcitabine, gemcitabine+anti-PD-1, Compound 6+anti-PD-1, Compound 6+gemcitabine+anti-PD-1, and the control vehicle (5% GS), respectively, according to the dosing regimen shown in Table 11 below.
Mice were observed every day for their physical conditions and activities, and mice body weight and tumor volume were measured every other day. The tumor volume (V) was calculated as (length×width^2)/2.
Mice body weights, and tumor sizes were analyzed using the t-test in SPSS, and group differences were deemed statistically significant when the p-value was 0.05 or less.
Tumor growth inhibition (TGI) was calculated by the following formula. Tumor growth inhibition=(average tumor size in vehicle group-average tumor size in administration group)/average tumor size in vehicle group×100%
Zheng-Jun Jin's Q value was calculated as described above.

Series [6] has as its system MC38 cells. The series can be described thus: MC38 tumor model in mPD-1-/- mPD-L1-/- hPD-1+/+ hPD-L1+/+ transgenic mice (Example 3). It counts as in vivo, C57BL/6-Pdcd1^em1(hPDCD1) Cd274^em1(hPD-L1)/Smoc mice. The procedure:
MC38 cells were maintained at 37° C. in 5% CO2 in RPMI 1640 medium (10-040-CV, Corning cellgro) supplemented with 10% FBS (10270-106, GIBCO, Thermo Fisher Scientific), 100 U/ml penicillin and 100 U/ml streptomycin in 10-cm Petri dishes.
Female C57BL/6-Pdcd1^em1(hPDCD1) Cd274^em1(hPD-L1)/Smoc mice, 20-25 g (Shanghai Model Organisms), were subcutaneously injected with about 3×10^5 MC38 cells, respectively.
When tumors grew to 50-70 mm^3, these mice were randomly assigned to four groups, 8 mice per group, this day was designated as Day 0. From Day 0, the animals were administered with an anti-PD-1 antibody (Toripalimab, Shanghai Junshi Biosciences Co., Ltd. China) in saline at 40.0 mg/mL, an hIgG4 (Novoprotein, NovoPro Bioscience Inc.) in saline at 3.3 mg/mL, Compound 6 in saline at 8 mg/mL in combination with the anti-PD-1 antibody, and Compound 6 in combination with hIgG4, respectively, according to the dosing regimen shown in Table 8 above.
Mice were observed every day for their physical conditions and activities, and mice body weight and tumor volume were measured twice a week. The tumor volume (V) was calculated as (length×width^2)/2.
Mice in Group 1 and Group 2 were subjected to euthanasia at Day 14, and those from Group 3 and Group 4 on Day 21, from which tumors were collected and photographed. Mice body weights and tumor sizes were analyzed using the t-test in SPSS, and group differences were deemed statistically significant when the p-value was 0.05 or less. TGI and Zheng-Jun Jin's Q value were calculated.

Series [7] deals with MC38 cells. The series can be described thus: MC38 tumor model in transgenic mice, lower dose of anti-PD-1 antibody (Example 4). It counts as in vivo, C57BL/6-Pdcd1^em1(hPDCD1) Cd274^em1(hPD-L1)/Smoc mice. The settings on record: Compound 6 8 mg/kg IP QD × 14; anti-PD-1 or hIgG4 2.5 mg/kg IP BIW × 3. Here is the method:
The test of Example 3 was repeated in the same transgenic mouse model using a lower dose of anti-PD-1 antibody, i.e., 2.5 mg/kg anti-PD-1, with some other minor modifications.
In particular, female C57BL/6-Pdcd1^em1(hPDCD1) Cd274^em1(hPD-L1)/Smoc mice (Shanghai Model Organisms), 5-7 weeks old, were subcutaneously injected with about 3×10^5 MC38 cells, respectively.
When tumors grew to 50-100 mm^3, these mice were randomly assigned to four groups, 8 mice per group, this day was designated as Day 0. From Day 0, the animals were administered with an anti-PD-1 antibody (Toripalimab, Shanghai Junshi Biosciences Co., Ltd. China) in 5% GS (5% glucose solution) at 40 mg/mL, an hIgG4 (Novoprotein, NovoPro Bioscience Inc.) in 5% GS at 3.3 mg/mL, Compound 6 in 5% GS at 8 mg/mL in combination with the anti-PD-1 antibody, and Compound 6 in combination with hIgG4, respectively, according to the dosing regimen shown in Table 10 below.

For series [8] the following is noted: patients receiving various doses; pooled analysis of 14 phase I-III studies; cited from earlier work.
The mark [9] stands for this setting: Day 23, compounds 15 mg/kg, anti-m-PD-1 10 mg/kg.

Turning to `NC(=O)c1nnc(N[C@H]2CCCNC2)c2cc(-c3cccc(F)c3)sc12` [Compound 6, 2-(3-fluorophenyl)-4-(3-piperidineamino)-thieno[2,3-d]pyridazine-7-carboxylic acid amide], in the series with CT-26 WT cells [1], the “TGI - tumor size” value was 72.74%. The “TGI - tumor weight” value in the series with CT-26 WT cells [1] is listed as 77.53%. For the same molecule, the “average mice weight, tumor weight deducted” value in series [2] is reported as 18.41 g; in series [4] (setting [9]), 17.63 g. For the same molecule, the Average tumor size came to 163.24 mm^3 in the series on CT-26 WT cells [3] (Day 9); 220.45 mm^3 in the series with CT-26 WT cells [3] (Day 10); 367.43 mm^3 in the series with CT-26 WT cells [3] (Day 12); 494.61 mm^3 in the series on CT-26 WT cells [3] (Day 14); 666.40 mm^3 with CT-26 WT cells [3] (Day 16); 770.93 mm^3 in the series with CT-26 WT cells [3] (Day 18). The figures for the Average tumor size in the series with CT-26 WT cells [3] (Day 20), with CT-26 WT cells [3] (Day 22) and in the series with CT-26 WT cells [3] (Day 23) were 955.40 mm^3, 1094.31 mm^3 and 1071.65 mm^3, respectively. Also, the “Tumor weight based TGI” value in the series with CT-26 WT cells [3] (setting [9]) was 52.30%. The “Tumor weight, Average” value with CT-26 WT cells [3] (Day 23, group average of 8 mice) is reported as 1.35 g. Moreover, in the series on CT-26 WT cells [3] (Day 23, individual mouse), the “Tumor weight, Mouse no. 1” value was found to be 0.95 g. Further, the “Tumor weight, Mouse no. 2” value in the series with CT-26 WT cells [3] (Day 23, individual mouse) is listed as 0.28 g. Moreover, the “Tumor weight, Mouse no. 3” value with CT-26 WT cells [3] (Day 23, individual mouse) is given as 0.59 g. Besides, the “Tumor weight, Mouse no. 4” value with CT-26 WT cells [3] (Day 23, individual mouse) is 2.43 g. Also, in the series with CT-26 WT cells [3] (Day 23, individual mouse), the “Tumor weight, Mouse no. 5” value is 2.97 g. The “Tumor weight, Mouse no. 6” value in the series on CT-26 WT cells [3] (Day 23, individual mouse) amounted to 0.97 g. For the same molecule, the “Tumor weight, Mouse no. 7” value in the series with CT-26 WT cells [3] (Day 23, individual mouse) is recorded as 2.04 g. Besides, in the series with CT-26 WT cells [3] (Day 23, individual mouse), the “Tumor weight, Mouse no. 8” value was 0.57 g. The Average body weight in series [4] (Day 9) was determined as 16.39 g; in series [4] (Day 10), 16.85 g; in series [4] (Day 12), 16.87 g; in series [4] (Day 14), 17.03 g; in series [4] (Day 16), 17.88 g; in series [4] (Day 18), 17.89 g. The Average body weight is reported as 18.25 g in series [4] (Day 20), 18.37 g in series [4] (Day 22) and 18.98 g in series [4] (Day 23). The “TGI based on tumor sizes” value in the series with MC38 cells [5] is reported as 52.53%.

Take Toripalimab [anti-PD-1]: the Average tumor size in the series on MC38 cells [6] (Day 0 (day of grouping, start of dosing)) is 59.1 ± 0.4 mm^3; in the series on MC38 cells [6] (Day 14, Compound 6 8 mg/kg IP QD Day 0-13, anti-PD-1 or hIgG4 3 mg/kg IP Q2D) it was 792.1 ± 207.1 mm^3. The “TGI (%) on D14” value with MC38 cells [6] (Day 14, Compound 6 8 mg/kg IP QD, anti-PD-1 or hIgG4 3 mg/kg IP Q2D) is listed as 58%. For the same molecule, the inhibition of tumour growth (TGI) with MC38 cells [7] is 46.95%. In addition, in the series on MC38 cells [5], the “TGI based on tumor sizes” value worked out at 17.05%.

With ipilimumab, the “patients who experienced immune-related adverse effects” value in series [8] is given as 64%.

Values taken from US20240009190A1, “COMBINATION CANCER THERAPY USING CHK INHIBITOR” (SHANGHAI HUAYU BIOTECHNOLOGY CO., LTD., priority 2020, published 2024).
